Key:
[1] = test system: G93A mutant SOD1 transgenic mice; assay: Western blot analysis of knee joint tissue in ALS animal model; format: in vivo, mouse; settings: 120 days old; compared to DMSO non-TG mice
Description: As a control group, non-transgenic mice were injected intraperitoneally (i.p.) with vehicle (DMSO) in the same manner for the same period of time.
Specifically, the lumbar spinal cord or knee joint of the mouse of Example 6 was separated and immediately frozen at −80° C. Each lumbar spinal cord or knee joint was then homogenized and chemically treated to obtain cells. The chemically treated cells, the C2C12 cells of Example 1 or the fibroblasts of Example 5 were dissolved in a RIPA buffer (Thermo, MA, USA) with a protease inhibitor and a phosphatase inhibitor (Roche, IN, USA) and incubated on ice for 30 minutes. After centrifugation of the lysate at 13,000 rpm at 4° C. for 20 min, insoluble substances were removed. Protein concentrations were measured by BCA analysis (Pierce Biotechnology). Equal volumes of cell lysate were loaded onto SDS-PAGE gels for electrophoresis, and transferred onto nitrocellulose membranes (Amersham Protran 0.2 um NC, Amersham Pharmacia Biotech, Piscataway, NJ, USA). The membranes were then blocked with 5% (w/v) skimmilk in 1×TBST for 1 h at room temperature. After blocking, anti-RB-actin antibody (1:5000; Santa Cruz, cat #sc47778), anti-Smad2 antibody (1:1000; Cell Signaling, cat #5339), anti-p-Smad2 antibody (1:1000; Cell Signaling, cat #3108), anti-TGF-β1 antibody (1:1000; Santa Cruz, cat #sc130348), anti-α-SMA antibody (1:10000; abcam cat #ab7817), anti-MyoD antibody (1:1000; cat #sc377460), anti-collagen|antibody (1:1000; abcam cat #ab21286), anti-cleaved caspase-3 antibody (1:1000; Cell Signaling, cat #9661), anti-bax antibody (1:500; Santa Cruz, cat #sc493), anti-bcl2 antibody (1:1000; Novus Biologics, cat #NB100-56098), anti-ChAT antibody (1:1000; Millipore, cat #AB144) were treated and incubated overnight at 4° C. Subsequently, membranes were washed several times with 1×TBST and incubated with horseradish peroxidase-conjugated secondary antibodies (anti-mouse, rabbit or goat, 1:5000; GE Healthcare) in blocking buffer for 1 h at room temperature (RT). The membranes were then washed, briefly incubated with the SuperSignal West Pico Plus Chemical Substructure (Pierce Biotechnology) according to the manufacturer's procedure, and quantified with an image analyzer (Amersham Pharmacia Biotech, Piscataway, NJ, USA). β-actin was used as an internal control group. The concentration measurement of protein intensity was quantified using Image J (National Institutes of Health).
Specifically, halofuginone was administered to G93A mutant SOD1 mice in the same manner as described in Example 6, and ROM measurement of the knee joint was performed in the same manner as described in Example 10 (FIG. 8a). In addition, Western blot analysis was performed in the same manner as the method described in Example 12 using knee joint tissue to confirm p-Smad2, Smad2, TGF-β1, α-SMA, MyoD, and collagen I protein expression (FIG. 8b).

[2] = test system: G93A mutant SOD1 mouse-derived fibroblasts; assay: Real-time qRT-PCR analysis of ALS animal model-derived fibroblasts; format: cell-based; settings: low or high concentration halofuginone for 24 hours; elevation vs Non-TG fibroblasts (FIG. 5a)
Description: Specifically, primary fibroblasts were isolated from skeletal muscle of 120-day-old non-transformed or G93A mutant SOD1 transgenic mice of Example 4. The excised tissue was placed on 100-mm culture dishes containing HBSS (Hanks' Balanced Salt Solution; Gibco, cat #14175095) and penicillin-streptomycin (Cat #15070-063, Thermo Fisher Scientific) without calcium and magnesium. Muscle tissue was cut on ice blocks. Then, the tissue was cut into 1 mm pieces and enzymatically reacted with 0.2% IV type collagenase (Sigma) at 37° C. for 1 hour. The enzymatic reaction was stopped by the addition of 10 ml of FBS (Gibco). […]
Specifically, total RNA was isolated from C2C12 cells in Example 1, fibroblasts in Example 5, and the lumbar spinal cord of mice in Example 6 using the FavorPrep™ Tri-RNA Reagent (Favorgen). […] The concentration of total RNA was measured at 260 nm absorbance using a spectrophotometer (NanoDrop Spectrophotometer ND-2000, Thermo Scientific). cDNA was synthesized from 1 μg of total RNA using the ReverTra Ace-α™ (Toyobo) according to the manufacturers protocol. Quantitative RT-PCR was performed using the SYBR Green ExcelTaq™ 2× Fast Q-PCR Master Mix (TQ1200, Smobio) on a thermocycler (CFX Connect Real-Time PCR Detection System, BIO-RAD) with the primers listed in Table 3 below. […]

## O=C(C[C@H]1NCCC[C@@H]1O)Cn1cnc2cc(Br)c(Cl)cc2c1=O (racemic) [halofuginone]
[1]
  Col-1 expression level in knee joint tissue: rather reduced
  MyoD expression level in knee joint tissue: preserved similarly
  TGF-β1 expression level in knee joint tissue: preserved similarly
  p-Smad2/Smad2 ratio in knee joint tissue: preserved similarly
  α-SMA expression level in knee joint tissue: preserved similarly
[2]
  elevated mRNA level of TGF-β, α-SMA and Col-I: attenuated

From patent publication US20240390377A1, “COMPOSITION FOR THE PREVENTION OR TREATMENT OF NEURODEGENERATIVE OR MOTOR NEURON DISEASES COMPRISING HALOFUGINONE AS AN ACTIVE INGREDIENT” (CURAMYS CO., LTD., priority 2022, published 2024)
